Measured values reported in patent publication US20130039993A1, “ARGON-BASED INHALABLE GASEOUS MEDICAMENT AGAINST PERIPHERAL ORGAN DEFICIENCIES OR FAILURES” (L'Air Liquide, Societe Anonyme pour l'Etude et …, priority 2010, published 2013).

Columns and labels:
[1] = test system: kidneys isolated from rats; assay: Renal morphology of grafted rat kidneys preserved 6 hours in a gaseous atmosphere (standard histology, histochemistry with anti-active caspase-3 and anti-CD10 antibodies); format: in vivo, Wistar rats; settings: grafted kidneys preserved 6 hours in 100% by volume gas; for kidneys showing cell lysis with subconfluent coagulation necrosis (standard histology): share of kidneys of the group
Source text: (§1) To do this, kidneys isolated from rats intended for a transplantation were used.
(§2) 120 Wistar rats, weighing between 200 g and 250 g, were used while adhering to the Guide for the Care and Use of Laboratory Animals published by the National Institutes of Health.
(§3) The animals were operated upon under general anesthesia and the left kidneys were removed and then preserved in several gaseous atmospheres, namely: • Group A (according to the invention): argon (100% by volume) • Group B (comparative): xenon (100% by volume) • Group C (1st control): air (i.e. essentially N2/O2 mixture) • Group D (2nd control): nitrogen
(§4) The kidneys of a rat are preserved therein for 6 hours before being grafted onto another anesthetized rat according to the conditions previously described. The rats are kept under observation for 14 days.
(§5) In order to carry out an evaluation of the effectiveness of the protection produced by the various gases tested, the renal function and renal morphology of the grafted kidneys were examined.
The renal morphology was evaluated by standard histology and histochemistry using anti-active caspase-3 and anti-CD10 antibodies.

[2] = test system: kidneys isolated from rats; assay: Renal function of grafted rat kidneys preserved 6 hours in a gaseous atmosphere (creatinine clearance, 24-hour albuminuria); format: in vivo, Wistar rats; settings: days D7 and D14 after graft, kidney preserved 6 hours in 100% by volume gas; for creatinine clearance of the grafted kidneys: estimated, related back to 100 g of weight, FIG. 1
Source text: as §1, §2, §3, §4, §5
The renal function was evaluated by calculating the creatinine clearance estimated and related back to 100 g of weight, and by measuring the 24-hour albuminuria.

SMILES | CD10 labeling (histochemistry; preservation of the tubule functional structure) ([1]; anti-CD10 antibody) | caspase-3 labeling (histochemistry; cell degeneration) ([1]; anti-active caspase-3 antibody) | kidneys showing cell lysis with subconfluent coagulation necrosis (standard histology) [1] | albuminuria ([2]; 24-hour albuminuria, FIG. 2) | creatinine clearance of the grafted kidneys [2]
[Ar] [argon] | very well preserved | discrete and in foci | no kidney of group A under an argon atmosphere exhibited any sign of cell lysis or necrosis | half as much in group A than in the other groups | preserved a good creatinine clearance
[Xe] [xenon, reference compound] | – | – | ⅓ | – | slightly better with xenon, but significantly lower compared with argon
